What all share (format): cell-based
For one assay, the target named is T1, human TLR7 (Homo sapiens, UniProt Q9NYK1).
T1 construct: host or cells: HEK-Blue cells (HEK293-derived reporter line)
T1 sequence (Q9NYK1 27-1049): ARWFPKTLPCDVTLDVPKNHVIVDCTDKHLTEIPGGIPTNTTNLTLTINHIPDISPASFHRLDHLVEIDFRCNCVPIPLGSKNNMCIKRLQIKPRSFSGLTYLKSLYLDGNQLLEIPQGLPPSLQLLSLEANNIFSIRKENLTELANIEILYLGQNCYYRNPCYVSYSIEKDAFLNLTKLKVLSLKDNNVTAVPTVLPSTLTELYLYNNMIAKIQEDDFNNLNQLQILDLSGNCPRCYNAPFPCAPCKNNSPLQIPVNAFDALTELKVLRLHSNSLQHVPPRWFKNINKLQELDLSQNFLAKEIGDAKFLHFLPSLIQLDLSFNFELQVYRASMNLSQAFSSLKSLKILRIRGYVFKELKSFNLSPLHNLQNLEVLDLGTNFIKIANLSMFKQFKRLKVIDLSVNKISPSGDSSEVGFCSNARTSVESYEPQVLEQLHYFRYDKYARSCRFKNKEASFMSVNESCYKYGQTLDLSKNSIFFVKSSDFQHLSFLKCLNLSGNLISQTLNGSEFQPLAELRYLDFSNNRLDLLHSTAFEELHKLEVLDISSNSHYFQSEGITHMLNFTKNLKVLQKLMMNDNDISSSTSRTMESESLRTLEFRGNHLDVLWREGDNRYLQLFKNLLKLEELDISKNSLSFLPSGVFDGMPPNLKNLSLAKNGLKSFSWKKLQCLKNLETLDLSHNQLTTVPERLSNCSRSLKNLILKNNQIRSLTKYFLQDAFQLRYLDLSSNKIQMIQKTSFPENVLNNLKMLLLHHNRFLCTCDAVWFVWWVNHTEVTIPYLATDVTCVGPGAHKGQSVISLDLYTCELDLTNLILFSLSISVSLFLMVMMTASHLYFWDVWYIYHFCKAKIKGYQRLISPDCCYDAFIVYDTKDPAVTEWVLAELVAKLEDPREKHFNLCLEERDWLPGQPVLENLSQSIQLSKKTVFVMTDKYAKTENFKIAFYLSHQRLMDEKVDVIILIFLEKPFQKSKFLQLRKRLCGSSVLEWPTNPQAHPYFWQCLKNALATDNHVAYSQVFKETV
The assay can be described thus: TLR7 inhibition reporter assay (HEK-Blue cells, SEAP reporter, gardiquimod stimulation). The following applies: HEK-Blue cells overexpressing human TLR7, SEAP reporter, gardiquimod 7.5 μM. Put shortly: (§1)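 Agonists (final): TLR7 gardiquimod 7.5 μM; TLR8 R848 15.9 μM; TLR9 ODN2006 5 nM. HEK-Blue reporter cells, 30 min RT compound pre-incubation, 0.05 nM–50 μM dose range, 22 h at 37 °C, colorimetric SEAP detection medium. % inhibition relative to agonist+DMSO and known-inhibitor wells.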
(A reporter such as luciferase makes a cellular process visible.)

Another assay deals with T2, human TLR8 (Homo sapiens, UniProt Q9NR97).
T2 construct: host or cells: HEK-Blue cells (HEK293-derived reporter line)
T2 sequence (Q9NR97 27-1041): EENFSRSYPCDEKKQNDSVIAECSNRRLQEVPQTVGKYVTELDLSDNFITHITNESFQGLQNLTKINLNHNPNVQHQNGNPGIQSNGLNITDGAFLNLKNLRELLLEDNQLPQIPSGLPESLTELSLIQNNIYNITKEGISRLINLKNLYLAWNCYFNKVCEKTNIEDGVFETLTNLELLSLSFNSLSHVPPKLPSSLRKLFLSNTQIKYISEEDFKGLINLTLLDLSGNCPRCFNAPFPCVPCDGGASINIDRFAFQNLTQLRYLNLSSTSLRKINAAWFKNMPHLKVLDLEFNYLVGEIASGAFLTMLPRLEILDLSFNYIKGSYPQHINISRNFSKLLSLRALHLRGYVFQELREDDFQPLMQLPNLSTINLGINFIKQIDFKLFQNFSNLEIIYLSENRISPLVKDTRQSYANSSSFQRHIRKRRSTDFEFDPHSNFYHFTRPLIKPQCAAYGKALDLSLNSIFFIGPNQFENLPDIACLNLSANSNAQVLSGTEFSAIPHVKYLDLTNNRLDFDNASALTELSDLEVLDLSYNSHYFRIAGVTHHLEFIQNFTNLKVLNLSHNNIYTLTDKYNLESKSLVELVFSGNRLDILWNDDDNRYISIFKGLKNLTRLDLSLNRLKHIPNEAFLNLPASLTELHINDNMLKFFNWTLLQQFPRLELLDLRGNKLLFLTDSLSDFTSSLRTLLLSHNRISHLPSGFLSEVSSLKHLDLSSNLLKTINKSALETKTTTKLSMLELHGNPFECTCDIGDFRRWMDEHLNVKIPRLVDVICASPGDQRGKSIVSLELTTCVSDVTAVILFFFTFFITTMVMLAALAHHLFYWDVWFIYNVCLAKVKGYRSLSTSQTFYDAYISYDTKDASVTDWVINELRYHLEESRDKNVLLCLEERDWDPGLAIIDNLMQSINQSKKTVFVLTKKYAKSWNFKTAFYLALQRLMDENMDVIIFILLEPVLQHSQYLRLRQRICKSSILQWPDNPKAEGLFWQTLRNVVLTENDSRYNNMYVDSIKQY
The assay can be described thus: TLR8 inhibition reporter assay (HEK-Blue cells, SEAP reporter, R848 stimulation). Particulars: HEK-Blue cells overexpressing human TLR8, SEAP reporter, R848 15.9 μM. Put shortly: as §1

The target in another assay is T3, human TLR9 (Homo sapiens, UniProt Q9NR96).
T3 construct: host or cells: HEK-Blue cells (HEK293-derived reporter line)
T3 sequence (Q9NR96 26-1032): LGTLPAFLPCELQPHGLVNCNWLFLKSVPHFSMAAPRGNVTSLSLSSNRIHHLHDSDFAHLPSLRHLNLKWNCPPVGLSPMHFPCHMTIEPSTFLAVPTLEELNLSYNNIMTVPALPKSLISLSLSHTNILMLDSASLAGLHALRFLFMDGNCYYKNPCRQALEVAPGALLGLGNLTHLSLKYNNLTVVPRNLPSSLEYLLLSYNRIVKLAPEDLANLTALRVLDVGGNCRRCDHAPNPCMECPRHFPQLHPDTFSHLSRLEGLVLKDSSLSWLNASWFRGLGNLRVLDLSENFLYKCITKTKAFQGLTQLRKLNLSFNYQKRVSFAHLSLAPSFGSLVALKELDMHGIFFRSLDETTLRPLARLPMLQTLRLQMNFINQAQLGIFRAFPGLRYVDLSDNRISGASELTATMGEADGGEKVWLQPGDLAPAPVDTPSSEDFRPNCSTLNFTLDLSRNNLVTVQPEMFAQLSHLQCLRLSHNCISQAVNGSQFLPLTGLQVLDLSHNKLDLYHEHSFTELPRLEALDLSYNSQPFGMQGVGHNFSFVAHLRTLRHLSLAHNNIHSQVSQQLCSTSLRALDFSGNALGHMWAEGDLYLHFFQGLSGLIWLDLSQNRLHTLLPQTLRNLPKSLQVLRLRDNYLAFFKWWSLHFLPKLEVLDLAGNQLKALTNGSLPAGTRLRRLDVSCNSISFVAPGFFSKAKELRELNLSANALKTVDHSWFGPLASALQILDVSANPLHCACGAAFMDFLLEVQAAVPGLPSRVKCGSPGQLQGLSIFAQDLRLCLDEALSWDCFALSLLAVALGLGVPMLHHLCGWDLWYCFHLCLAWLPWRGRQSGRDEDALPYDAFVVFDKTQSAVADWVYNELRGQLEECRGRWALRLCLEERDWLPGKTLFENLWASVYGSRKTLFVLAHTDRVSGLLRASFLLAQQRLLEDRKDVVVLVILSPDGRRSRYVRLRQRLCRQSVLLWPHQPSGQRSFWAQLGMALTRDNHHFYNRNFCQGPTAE
The assay is described as follows: TLR9 inhibition reporter assay (HEK-Blue cells, SEAP reporter, ODN2006 stimulation). Particulars: HEK-Blue cells overexpressing human TLR9, SEAP reporter, ODN2006 5 nM. Put shortly:
as §1

Broadly, the IC50 is the concentration that gives 50% inhibition.

In the case of `CNC(=O)CN1CCC(c2ccc3[nH]c(-c4cn5cc(C)nc5cc4C)c(C(C)C)c3c2)CC1` [Example 374, 2-(4-(2-(2,7-dimethylimidazo[1,2-a]pyridin-6-yl)-3-isopropyl-1H-indol-5-yl)piperidin-1-yl)-N-methylacetamide], the IC50 at human TLR7 was below 100 nM; against human TLR8 it was 100 to 1000 nM; on human TLR9, 100 to 1000 nM.
`Cc1nc2c(C)cc(-c3[nH]c4ccc(C5CCNCC5)cc4c3C(C)C)cn2c1C` [Example 132, 6-(3-isopropyl-5-(piperidin-4-yl)-1H-indol-2-yl)-2,3,8-trimethylimidazo[1,2-a]pyridine]: the results for the IC50 against human TLR7, against human TLR8 and on human TLR9 were below 100 nM, 100 to 1000 nM and 100 to 1000 nM, respectively.

These data come from US11739098B2 (BRISTOL-MYERS SQUIBB COMPANY, priority 2017, dated 2023).
